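Tested at 5 concentrations; 48 h exposure; 96-well plates; endpoints linearly interpolated, else capped at highest concentration. GI50 is the concentration that inhibits growth by half.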 Calls of active or inactive are those of the source. No stated cut-off is given here; in the data, active = GI50 up to about 1.1 µM and inactive = higher.
Tests used:
Experiment in all cases: DTP human tumour cell line panel, 48 h
[1] = tested on: 786-0
[2] = tested on: A498
[3] = tested on: A549
[4] = tested on: ACHN
[5] = tested on: BT-549
[6] = tested on: CAKI-1
[7] = tested on: CCRF-CEM
[8] = tested on: COLO 205
[9] = tested on: DU-145
[10] = tested on: EKVX
[11] = tested on: HCC 2998
[12] = tested on: HCT-116
[13] = tested on: HCT-15
[14] = tested on: HL-60
[15] = tested on: HOP-62
[16] = tested on: HOP-92
[17] = tested on: HT-29
[18] = tested on: Hs-578T
[19] = tested on: IGROV-1
[20] = tested on: K562
[21] = tested on: KM12
[22] = tested on: LOX IMVI
[23] = tested on: M14
[24] = tested on: MCF7
[25] = tested on: MDA-MB-231
[26] = tested on: MDA-MB-435
[27] = tested on: MDA-N
[28] = tested on: MOLT-4
[29] = tested on: Malme-3M
[30] = tested on: NCI-H226
[31] = tested on: NCI-H23
[32] = tested on: NCI-H460
[33] = tested on: NCI-H522
[34] = tested on: NCI/ADR-RES
[35] = tested on: OVCAR-3
[36] = tested on: OVCAR-4
[37] = tested on: OVCAR-5
[38] = tested on: OVCAR-8
[39] = tested on: PC-3
[40] = tested on: RPMI-8226
[41] = tested on: RXF 393
[42] = tested on: SF-268
[43] = tested on: SF-295
[44] = tested on: SF-539
[45] = tested on: SK-MEL-28
[46] = tested on: SK-MEL-2
[47] = tested on: SK-MEL-5
[48] = tested on: SK-OV-3
[49] = tested on: SN12C
[50] = tested on: SNB-19
[51] = tested on: SNB-75
[52] = tested on: SR
[53] = tested on: SW-620
[54] = tested on: T47D
[55] = tested on: TK-10
[56] = tested on: U-251
[57] = tested on: UACC-257
[58] = tested on: UACC-62
[59] = tested on: UO-31

Measured: GI50

C/C(=N\NC(=S)NC(C)(C)C)c1nc2cccnc2[nH]1
2.47 µM: [13]
inactive: [1] 3.02 µM | [2] 18.6 µM | [3] 3.29 µM | [4] 2.82 µM | [5] 2.55 µM | [6] 3.33 µM | [8] 2.26 µM | [9] 2.43 µM | [10] 2.5 µM | [11] 3.79 µM | [12] 3.59 µM | [14] 1.2 µM | [15] 6.15 µM | [16] 1.47 µM | [17] 1.71 µM | [18] 3.36 µM | [19] 3.06 µM | [20] 1.83 µM | [21] 4.8 µM | [22] 3.4 µM | [23] 3.33 µM | [25] 3.55 µM | [26] 5.37 µM | [27] 7.38 µM | [28] 2.13 µM | [29] 4.49 µM | [30] 3.4 µM | [31] 8.26 µM | [32] 3.03 µM | [33] 4.53 µM | [34] 3.03 µM | [37] 1.14 µM | [38] 1.5 µM | [39] 7.93 µM | [40] 6.05 µM | [41] 4.92 µM | [42] 6.53 µM | [43] 2.8 µM | [44] 3.21 µM | [45] 8.71 µM | [46] 3.85 µM | [47] 2.21 µM | [48] 3.08 µM | [49] 7.74 µM | [50] 6.93 µM | [51] 16.3 µM | [52] 4.9 µM | [53] 3.47 µM | [55] 7.35 µM | [56] 1.15 µM | [57] 3.09 µM | [58] 2.57 µM
active: [7] 0.955 µM | [24] 0.309 µM | [35] 0.384 µM | [36] 0.634 µM | [54] 0.427 µM | [59] 1.06 µM

Cc1c(F)c(N)c2c(=O)cc(-c3ccc(NC(=O)C(N)CCCNC(=N)N)c(F)c3)oc2c1F (centres undefined)
19.7 µM: [13]
inactive: [1] 29 µM | [3] 3.68 µM | [4] 19.7 µM | [5] 21.8 µM | [7] > 88.3 µM | [8] 23.8 µM | [9] 29.6 µM | [10] 17.2 µM | [12] 13.2 µM | [14] > 52 µM | [15] > 52.2 µM | [16] 49.5 µM | [17] > 71.8 µM | [18] 28.5 µM | [21] 27 µM | [22] 38.1 µM | [23] 31.7 µM | [25] 22.5 µM | [26] 27.2 µM | [27] 32.1 µM | [28] 34.6 µM | [29] 27.5 µM | [31] 27.9 µM | [33] 24.8 µM | [34] 23.9 µM | [38] 32.1 µM | [39] 30.5 µM | [40] > 33.5 µM | [41] 21.6 µM | [42] 32.7 µM | [43] > 37.6 µM | [44] 16.7 µM | [45] 24.7 µM | [46] 23.4 µM | [47] 19.7 µM | [48] > 44.5 µM | [49] 17.1 µM | [50] 24.8 µM | [52] 43 µM | [53] > 61.5 µM | [56] 3.6 µM | [59] 22.8 µM
active: [2] 0.0615 µM | [6] 0.0792 µM | [11] 0.134 µM | [19] 0.0759 µM | [24] 0.0893 µM | [30] 0.111 µM | [32] 0.146 µM | [36] 0.141 µM | [37] 0.299 µM | [54] 0.411 µM | [55] 0.146 µM | [57] 0.262 µM

— ChEMBL document CHEMBL1201862, “PubChem BioAssay data set” (2004)
